In brackets after ≈: the same amount, converted by molar mass.
Experiments:
C. glabrata ATCC 90030 = assay: Anticandidal broth microdilution (EUCAST EDef 7.1), MIC90; format: cell-based, Candida glabrata; conditions: Nakaseomyces glabratus, ATCC90030, C. glabrata ATCC 90030
Text: (§1) E. coli (ATCC 35218), E. coli (ATCC 25922), S. aureus (ATCC 6538), methicillin-resistant S. aureus (MRSA) (clinical isolate), S. typhimurium (ATCC 13311), and K. pneumoniae (NCTC 9633) cells for antibacterial effect, and C. albicans (ATCC 24433), C. glabrata (ATCC 90030), C. krusei (ATCC 6258), and C. parapsilosis (ATCC 22019) for the antifungal effect of the final compounds were used to determine the MIC90 values. The broth microdilution procedure specified in the M07-A9 document of the Clinical and Laboratory Standards Institute (CLSI) was used for antibacterial study,[55] and the EDef 7.1 document published by EUCAST was used for the antifungal study.[56] For both activity studies, the detailed procedures were explained in previous studies.[57],[58]

[1] = test system: Staphylococcus aureus ATCC 6538; assay: Antibacterial broth microdilution (CLSI M07-A9), MIC90; format: cell-based; conditions: Staphylococcus aureus, ATCC6538; S. aureus ATCC 6538; read-out: MIC90
Text: (§2) The broth microdilution procedure specified in the M07-A9 document of the Clinical and Laboratory Standards Institute (CLSI) was used for antibacterial study,[55] and the EDef 7.1 document published by EUCAST was used for the antifungal study.[56] For both activity studies, the detailed procedures were explained in previous studies.[57],[58]

[2] = test system: methicillin-resistant S. aureus (MRSA) (clinical isolate); assay: as above; format: cell-based; conditions: for MIC90: Staphylococcus aureus
Text: as §2

[3] = test system: Escherichia coli ATCC 35218; assay: as above; format: cell-based; conditions: E. coli ATCC 35218; for MIC90: Escherichia coli, ATCC35218
Text: as §2

[4] = test system: Klebsiella pneumoniae NCTC 9633; assay: as above; format: cell-based; conditions: NCTC9633, K. pneumoniae NCTC 9633
Text: as §2

E. coli ATCC 25922 = assay: as above; format: cell-based; conditions: for MIC90: Escherichia coli, ATCC25922
Text: as §2

[5] = test system: Salmonella typhimurium ATCC 13311; assay: as above; format: cell-based; conditions: Salmonella enterica; S. typhimurium ATCC 13311
Text: as §2

[6] = test system: Candida albicans ATCC 24433; assay: Anticandidal broth microdilution (EUCAST EDef 7.1), MIC90; format: cell-based; conditions: Candida albicans, ATCC24433, C. albicans ATCC 24433; read-out: MIC90
Text: as §1

Candida krusei ATCC 6258 = assay: as above; format: cell-based; conditions: Pichia kudriavzevii, ATCC6258, C. krusei ATCC 6258; read-out: MIC90
Text: as §1

[7] = test system: Candida parapsilosis ATCC 22019; assay: as above; format: cell-based; conditions: Lodderomyces parapsilosis, ATCC22019, C. parapsilosis ATCC 22019; read-out: MIC90
Text: as §1

NIH/3T3 cells = assay: Cytotoxicity on NIH/3T3 healthy cell line; format: cell-based; conditions: Mus musculus, NIH3T3, 24 h incubation
Description: NIH/3T3 cells were incubated in Dulbecco’s modified Eagle’s medium (DMEM) (Sigma-Aldrich, St. Louis, MO), added with fetal calf serum, penicillin (100 IU/mL), streptomycin ([…]), and 7.5% NaHCO3 at 37 °C in a humidified atmosphere of 95% air and 5% CO2. NIH/3T3 cells were seeded into the 96-well plates at a density of 1 × 10^4 cells. After 24 h of incubating period, the culture media were removed, and test compounds were added. After 24 h of incubation period, colorimetric measurements were performed by a microplate reader (Biotek) at 540 nm. Inhibition % at all concentrations was determined using the formula below, and the IC50 values were calculated from a dose–response curve obtained by plotting the percentage inhibition versus the log concentration with the use of Microsoft Excel 2013.

E. coli DNA gyrase = target: T1, E. coli DNA gyrase (Escherichia coli, UniProt P0AES4+P0AES6); assay: DNA-gyrase supercoiling inhibition by electrophoresis (TopoGen kit); format: biochemical; conditions: relaxed pHOT1 DNA
T1 construct: purchased TopoGen SKU TG2000G-3
Description: DNA gyrase obtained from E. coli was used to detect the inhibition of the superhelix activity of DNA gyrase. The method was performed according to the kit protocol described by the supplier (SKU TG2000G-3, TopoGen). The detailed procedures were explained in the previous study.[62]

[8] = test system: Lanosterol 14α-demethylase (LMD, CYP51A1); assay: LDM (CYP51A1) inhibition by LC-MS-MS quantification of ergosterol level; format: cell-based
Description: The activity of the target compounds was tested against Candida strains via the determination of ergosterol production.
Ergosterol level was determined using the extract of total sterols from C. albicans (and its other species) following the method described by Breivik and Owades.[63] Quantification of the ergosterol level in this extract was carried out by the recently described method.[58],[64]−[66] According to these described studies, in the current work, compounds 4b, 4e, 4f, and 4h–m were undertaken to investigate their action mechanism. Thus, the LC-MS-MS-based method that quantifies the ergosterol level was applied. […]. Ergosterol quantity in negative control samples was regarded as 100%. All concentrations were analyzed in quadruplicate, and the results were expressed as mean ± standard deviation (SD).

[9] = target: T2, human aromatase enzyme (CYP19A) (Homo sapiens, UniProt P11511); assay: Aromatase (CYP19A) Inhibitor Screening Kit (Fluorometric); format: biochemical
T2 construct: purchased Bio Vision
T2 sequence (P11511 1-503): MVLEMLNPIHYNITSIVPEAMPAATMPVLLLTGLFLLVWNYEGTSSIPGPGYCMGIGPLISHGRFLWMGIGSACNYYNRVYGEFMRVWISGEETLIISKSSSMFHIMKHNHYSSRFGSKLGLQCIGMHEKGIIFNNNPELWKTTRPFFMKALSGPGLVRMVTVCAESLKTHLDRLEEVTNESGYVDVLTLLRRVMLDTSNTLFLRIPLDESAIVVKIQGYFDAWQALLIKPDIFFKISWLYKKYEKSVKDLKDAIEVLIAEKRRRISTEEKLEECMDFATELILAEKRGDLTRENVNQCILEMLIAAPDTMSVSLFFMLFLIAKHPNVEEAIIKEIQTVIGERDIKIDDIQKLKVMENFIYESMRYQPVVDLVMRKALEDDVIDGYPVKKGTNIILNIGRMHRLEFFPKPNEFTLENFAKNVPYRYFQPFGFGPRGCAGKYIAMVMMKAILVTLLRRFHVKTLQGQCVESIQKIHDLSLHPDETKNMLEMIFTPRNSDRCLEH

T1 sequence (P0AES4 whole entry, one chain of several): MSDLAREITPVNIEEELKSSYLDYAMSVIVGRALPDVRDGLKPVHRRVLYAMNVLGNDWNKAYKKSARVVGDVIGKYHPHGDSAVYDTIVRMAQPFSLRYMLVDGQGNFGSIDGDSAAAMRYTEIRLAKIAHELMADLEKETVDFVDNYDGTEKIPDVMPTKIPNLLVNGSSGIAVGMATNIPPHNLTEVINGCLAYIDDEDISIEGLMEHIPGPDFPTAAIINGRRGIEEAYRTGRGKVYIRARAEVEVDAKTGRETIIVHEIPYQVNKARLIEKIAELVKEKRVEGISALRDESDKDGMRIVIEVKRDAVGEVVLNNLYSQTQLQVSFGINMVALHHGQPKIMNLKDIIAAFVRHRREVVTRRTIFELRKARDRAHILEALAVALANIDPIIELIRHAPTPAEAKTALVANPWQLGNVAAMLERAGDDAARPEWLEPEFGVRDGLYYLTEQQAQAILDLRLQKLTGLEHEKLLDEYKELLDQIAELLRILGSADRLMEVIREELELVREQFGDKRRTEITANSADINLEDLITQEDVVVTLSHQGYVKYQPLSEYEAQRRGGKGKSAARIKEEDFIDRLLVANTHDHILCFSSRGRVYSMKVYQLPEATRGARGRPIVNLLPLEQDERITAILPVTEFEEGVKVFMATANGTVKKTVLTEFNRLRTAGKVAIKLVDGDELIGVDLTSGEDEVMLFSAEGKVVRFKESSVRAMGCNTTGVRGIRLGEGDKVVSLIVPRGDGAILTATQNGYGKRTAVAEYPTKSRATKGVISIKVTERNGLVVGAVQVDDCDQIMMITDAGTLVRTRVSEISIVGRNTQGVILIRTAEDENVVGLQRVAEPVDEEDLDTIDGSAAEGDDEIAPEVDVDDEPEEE

SMILES | MIC90 (C. glabrata ATCC 90030) [µg/mL] | MIC90 [1] [µg/mL] | times more effective than the standard drug chloramphenicol (MIC90) [2] | MIC90 [2] [µg/mL] | times more effective than chloramphenicol (MIC90) [3] | MIC90 [3] [µg/mL] | MIC90 [4] [µg/mL] | times more effective than chloramphenicol (MIC90) (E. coli ATCC 25922) | MIC90 (E. coli ATCC 25922) [µg/mL] | MIC90 [5] [µg/mL] | melting point [°C] | MIC90 [6] [µg/mL] | MIC90 (Candida krusei ATCC 6258) [µg/mL] | MIC90 [7] [µg/mL] | IC50 (NIH/3T3 cells) [µM] | IC50 [9] [µM] | effect on ergosterol production / LMD enzyme inhibition (in words) ([8]; C. parapsilosis) | CYP51A1 Inhibition% ([8]; C. parapsilosis, 0.06 μg/mL) [%] | CYP51A1 Inhibition% ([8]; C. parapsilosis, 0.24 μg/mL) [%] | CYP51A1 Inhibition% ([8]; C. parapsilosis, 0.98 μg/mL) [%] | other results
COc1ccc(-c2csc(N/N=C/c3cc4cc(OC)ccc4nc3Cl)n2)cc1 [4g] | 15.6 (≈ 36.8 µM) | 7.81 (≈ 18.4 µM) | 8 | 3.91 (≈ 9.2 µM) | four times | 7.81 (≈ 18.4 µM) | > 1000 | four times | 3.91 (≈ 9.2 µM) | > 1000 | 176 to 180 | > 1000 | 31.2 (≈ 73.5 µM) | 3.91 (≈ 9.2 µM) | 10.4 ± 0.22 | – | – | – | – | – | DNA-gyrase inhibition (electrophoresis image) (E. coli DNA gyrase): no peak belonging to the supercoiled DNA
COc1ccc2nc(Cl)c(/C=N/Nc3nc(-c4cccc([N+](=O)[O-])c4)cs3)cc2c1 [4i] | 1.95 (≈ 4.43 µM) | > 1000 | – | > 1000 | – | > 1000 | > 1000 | – | > 1000 | > 1000 | 212 to 214 | 1.95 (≈ 4.43 µM) | 1.95 (≈ 4.43 µM) | 1.95 (≈ 4.43 µM) | 8.54 ± 0.26 | 0.033 ± 0.001 | – | – | – | – | effect on ergosterol production / LMD enzyme inhibition (in words) ([8]; C. krusei): did not decrease the ergosterol production compared to the standard drugs; CYP51A1 Inhibition% ([8]; C. krusei, 0.06 μg/mL): 11.662 ± 0.479%; CYP51A1 Inhibition% ([8]; C. krusei, 0.24 μg/mL): 14.178 ± 0.655%; CYP51A1 Inhibition% ([8]; C. krusei, 0.98 μg/mL): 18.361 ± 0.767%
COc1ccc2nc(Cl)c(C=NNc3nc(-c4cccc(F)c4)cs3)cc2c1 [4j] | > 1000 | > 1000 | – | > 1000 | – | > 1000 | > 1000 | – | > 1000 | > 1000 | 221 to 223 | > 1000 | 62.5 (≈ 151 µM) | < 0.06 | 10 ± 0.39 | 0.047 ± 0.001 | showed their anticandidal activity via LMD enzyme inhibition | 41.867 ± 0.968 | 55.281 ± 1.174 | 63.508 ± 1.948 | –
COc1cccc(-c2csc(N/N=C/c3cc4cc(OC)ccc4nc3Cl)n2)c1 [4k] | 1.95 (≈ 4.59 µM) | > 1000 | – | > 1000 | – | > 1000 | > 1000 | – | > 1000 | > 1000 | 217 to 220 | 1.95 (≈ 4.59 µM) | 1.95 (≈ 4.59 µM) | 1.95 (≈ 4.59 µM) | 12 ± 0.44 | 0.038 ± 0.001 | did not decrease the ergosterol production compared to the standard drugs | 11.449 ± 0.518 | 15.662 ± 0.616 | 17.437 ± 0.861 | –
COc1ccc2nc(Cl)c(C=NNc3nc(-c4ccncc4)cs3)cc2c1 [4l] | 1.95 (≈ 4.93 µM) | > 1000 | – | > 1000 | – | > 1000 | > 1000 | – | > 1000 | > 1000 | 250 to 257 | 1.95 (≈ 4.93 µM) | > 1000 | 1.95 (≈ 4.93 µM) | > 1000 | 0.042 ± 0.002 | showed their anticandidal activity via LMD enzyme inhibition | 40.328 ± 1.326 | 56.137 ± 0.928 | 62.949 ± 2.626 | –
COc1ccc2nc(Cl)c(C=NNc3nc(-c4cccc5ccccc45)cs3)cc2c1 [4m] | 1.95 (≈ 4.38 µM) | 7.81 (≈ 17.6 µM) | 4 | 7.81 (≈ 17.6 µM) | four times | 7.81 (≈ 17.6 µM) | > 1000 | twice | 7.81 (≈ 17.6 µM) | > 1000 | 174 to 179 | 1.95 (≈ 4.38 µM) | ≤ 0.06 | 0.24 (≈ 0.539 µM) | 34.5 ± 0.88 | – | – | – | – | – | effect on ergosterol production / LMD enzyme inhibition (in words) ([8]; C. krusei): showed their anticandidal activity via LMD enzyme inhibition; CYP51A1 Inhibition% ([8]; C. krusei, 0.06 μg/mL): 48.431 ± 2.036%; CYP51A1 Inhibition% ([8]; C. krusei, 0.24 μg/mL): 61.289 ± 1.461%; CYP51A1 Inhibition% ([8]; C. krusei, 0.98 μg/mL): 70.574 ± 2.648%; DNA-gyrase inhibition (electrophoresis image) (E. coli DNA gyrase): no peak belonging to the supercoiled DNA

Source: publication PMC9835529, “Investigation of Novel Quinoline–Thiazole Derivatives as Antimicrobial Agents: In Vitro and In Silico Approaches” (ACS Omega, 2022)
